Molecular target: T1, sigma-1 receptor (Cavia porcellus, UniProt Q60492)
T1 construct: from tissue; host or cells: guinea pig brain membranes
Test: [3H](+)-pentazocine binding assay for the sigma-1 receptor in guinea pig brain membranes
Details: [3H](+)-pentazocine 0.5 nM; for Sigma-1 Inhibition percent (0.01 μM): compound 0.01 μM; for Sigma-1 Inhibition percent (0.1 μM): compound 0.1 μM
Method: Some of the compounds synthesized according to the procedures described above were tested for their activity as sigma-1 inhibitors. The following protocol was followed:
Brain membrane preparation and binding assays for the […] were performed as described (DeHaven-Hudkins et al., 1992) with some modifications. In brief, guinea pig brains were homogenized in 10 vols. (w/v) of Tris-HCl 50 mM 0.32 M sucrose, pH 7.4, with a Kinematica Polytron PT 3000 at 15000 r.p.m. for 30 s. The homogenate was centrifuged at 1000 g for 10 min at 4° C. and the supernatants collected and centrifuged again at 48000 g for 15 min at 4° C. The pellet was resuspended in 10 volumes of Tris-HCl buffer (50 mM, pH 7.4), incubated at 37° C. for 30 min, and centrifuged at 48000 g for 20 min at 4° C. Following this, the pellet was resuspended in fresh Tris-HCl buffer (50 mM, pH 7.4) and stored on ice until use.
Each assay tube contained 10 μL of [^3H](+)-pentazocine (final concentration of 0.5 nM), 900 μL of the tissue suspension to a final assay volume of 1 mL and a final tissue concentration of approximately 30 mg tissue net weight/mL. Non-specific binding was defined by addition of a final concentration of 1 μM haloperidol. All tubes were incubated at 37° C. for 150 min before termination of the reaction by rapid filtration over Schleicher & Schuell GF 3362 glass fibre filters [previously soaked in a solution of 0.5% polyethylenimine for at least 1 h]. Filters were then washed with four times with 4 mL of cold Tris-HCl buffer (50 mM, pH 7.4). Following addition of scintillation cocktail, the samples were allowed to equilibrate overnight. The amount of bound radioactivity was determined by liquid scintillation spectrometry using a Wallac Winspectral 1414 liquid scintillation counter. Protein concentrations were determined by the method of Lowry et al. (1951).

T1 sequence (Q60492 whole entry): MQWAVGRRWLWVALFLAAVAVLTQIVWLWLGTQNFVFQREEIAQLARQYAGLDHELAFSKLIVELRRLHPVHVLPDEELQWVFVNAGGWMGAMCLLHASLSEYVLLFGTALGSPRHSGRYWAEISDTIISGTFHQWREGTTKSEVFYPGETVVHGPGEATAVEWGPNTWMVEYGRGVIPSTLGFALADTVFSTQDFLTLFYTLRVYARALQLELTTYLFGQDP

SMILES | Sigma-1 Inhibition percent (0.01 μM) | Sigma-1 Inhibition percent (0.1 μM)
Fc1cc(Br)ccc1-c1cnn(CCCN2CCCCC2)n1 [compound 21] | 25.8 | 83.4
c1ccc(-c2cnn(CCCN3CCCCC3)n2)cc1 [compound 20] | 43.6 | 82.2
Cc1nn(CCCN2CCCCC2)nc1-c1ccccc1 [compound 19] | 31.2 | 78.5
Clc1ccc(-c2nn(CCCCN3CCCCC3)nc2-c2ccccc2)cc1 [compound 10] | 26.1 | 59.1
Clc1ccc(-c2nn(CCCN3CCCCCC3)nc2-c2ccccc2)cc1 [compound 6] | 36.5 | 52.5

Reference: patent US8193223B2, “1,2,3-triazole derivatives as sigma receptor inhibitors” (Laboratorios Del Dr. Esteve, S.A., priority 2006, dated 2012)
